Source: patent US9474780B2, “GIP and GLP-1 co-agonist compounds” (Eli Lilly and Company, priority 2015, dated 2016)
“And” between values parts separate entries of the source, which are not always exact repeats. Equal values may be shown once. Numbered stars: 1 amine (or outer) side, 2 acyl side, 3 side chain; on linkers, the order of the positions; unused ones are H or OH. Square brackets hold non-standard residues; d marks the D form. Side chains are listed from the residue outwards. Peptide text beside a SMILES is read from it. * marks the point of attachment. C18 diacid = O=C(O)CCCCCCCCCCCCCCCCC(=O)*; γGlu = O=C(O)[C@H](CCC(=O)[*:2])N[*:1]; 1Nal = N[C@@H](Cc1cccc2ccccc12)C(=O)O; AEEA = NCCOCCOCC(=O)O; Aib = CC(C)(N)C(=O)O

What was measured:
[1] = Weight loss, body composition and hepatic steatosis in DIO mice; format: in vivo, mouse; settings: for Blood Glucose: Day 15
Summary of the method: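 C57/BL6 DIO mice, individually housed at 24 °C, 12 h light/dark, food and water ad libitum; daily body weight and food intake, weight change versus pre-dose value of the same animal. Day 15: tail-vein glucose, then liver triglycerides and plasma cholesterol; ANOVA with Dunnett's test, ED50 for weight loss by non-linear fit.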

human GLP-1R [2] = target: T1, human GLP-1R (Homo sapiens, UniProt P43220); format: binding
T1 construct: expressed in transfected cells; host or cells: 293HEK, Hygromycin-selected; crude plasma membranes

Human GCGR = Human GCGR (Homo sapiens, UniProt P47871); assay: Functional hGCGR cAMP assay in HEK-293 clonal cells
human GLP-1R [3] = target: T1, human GLP-1R; assay: Functional hGLP-1R cAMP assay in HEK-293 clonal cells; format: cell-based; settings: HEK293; percent of maximal response of hGLP-1(7-36)NH2
[4] = Pharmacokinetics in cynomolgus monkeys; format: in vivo; settings: cynomolgus monkey, plasma, single SC 0.2 mg/kg, male monkeys, n = 2
Summary of the method: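 Single 0.2 mg/kg dose, intravenous or subcutaneous, in 20 mM citrate buffer pH 7.0; blood sampled from 2 to 312 hours post-dose. Plasma extracted with N-butanol, reconstituted in 30% acetonitrile/0.1% formic acid and quantified by LC/MS on a C5 column with Q-Exactive detection.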

mouse islets = assay: Mouse islet insulin secretion; format: cell-based; settings: read-out: Mouse islet insulin secretion Mean ED50
Method: To assess action of compounds of the present invention in a system representing physiological GLP-1R and GIP-R expression levels insulin secretion, compounds are tested for effects on insulin secretion from wild-type rodent islets.
After common bile duct cannulation in male C57B1/6 mice (22-26 g) or male Sprague-Dawley rats (approx. 250 g), the pancreas is distended with Hank's buffer (3 ml for mice or 10 ml for rats, containing 2% BSA and 0.75 mg/ml Clzyme collagenase (VitaCyte). Subsequently, tissues are digested in Hank's buffer at 37° C. for 11-13 minutes (mice) or 14-16 minutes for rat pancreata. Purified islets (Histopaque-1100 gradient [Sigma-Aldrich], […] at 750× gravity) are cultured overnight in RPMI-1640 medium (Invitrogen) containing 10% FBS, 100 U/ml penicillin and 100 μg/ml streptomycin, and preconditioned by starvation in Earle's Balanced Salt Solution (EBSS) supplemented with 0.1% BSA and 2.8 mM glucose. Subsequently, islets are incubated in EBSS (Invitrogen) supplemented with 0.1% BSA, 2.8-11.2 mM glucose and increasing levels of compound (6 batches of 4 islets/condition). GLP-1(7-36)amide (30 nM) is used as a positive control. Insulin is measured over 90 minutes in supernatant using the MSD Insulin Assay (Meso Scale, Gaithersburg, Md.).

[5] = Rat in vivo insulin secretion following intravenous glucose (IVGTT); settings: s.c. 16 hour prior to glucose
Summary of the method: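 Male Wistar rats dosed s.c. with vehicle or 0.1–10 nmol/kg 16 h before glucose, then fasted and anesthetized with pentobarbital i.p. (65 mg/kg). Glucose ([…]) given after a time-zero bleed; plasma sampled at 2, 4, 6, 10, 20, 30 min. Glucose measured by analyzer, insulin by MSD immunoassay.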

human GIP-R = target: T2, human GIP-R (Homo sapiens, UniProt P48546); assay: Functional hGIP-R cAMP assay in HEK-293 clonal cells; settings: HEK293, read-out: Human GIP-R Emax
T2 sequence (P48546 22-466): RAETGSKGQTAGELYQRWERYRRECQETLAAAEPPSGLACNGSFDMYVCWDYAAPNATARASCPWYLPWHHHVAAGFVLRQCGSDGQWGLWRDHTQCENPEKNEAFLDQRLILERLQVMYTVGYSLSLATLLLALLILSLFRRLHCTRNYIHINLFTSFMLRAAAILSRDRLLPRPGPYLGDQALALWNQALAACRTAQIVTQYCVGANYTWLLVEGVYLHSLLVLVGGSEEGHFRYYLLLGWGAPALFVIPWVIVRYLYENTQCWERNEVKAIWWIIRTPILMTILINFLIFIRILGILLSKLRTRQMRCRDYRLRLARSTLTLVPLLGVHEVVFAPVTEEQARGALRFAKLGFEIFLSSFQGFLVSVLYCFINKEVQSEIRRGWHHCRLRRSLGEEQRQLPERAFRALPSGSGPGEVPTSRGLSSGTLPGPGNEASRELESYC
Method: After an incubation of 60 minutes at room temperature, the resulting increase in intracellular cAMP is quantitatively determined using the CisBio cAMP Dynamic 2 HTRF Assay Kit (Bedford, Mass.). Briefly, cAMP levels within the cell are detected by adding the cAMP-d2 conjugate in cell lysis buffer (20 μl) followed by the antibody anti-cAMP-Eu^3+-Cryptate, also in cell lysis buffer (20 μl). The resulting competitive assay is incubated for at least 60 minutes at room temperature, then detected using a PerkinElmer Envision® instrument with excitation at 320 nm and emission at 665 nm and 620 nm Envision units (emission at 665 nm/620 nm*10,000) are inversely proportional to the amount of cAMP present and are converted to nM cAMP per well using a cAMP standard curve. […] A relative EC50 value and percent top (Emax) is derived by non-linear regression analysis using the percent maximal response versus the concentration of the compound of the present invention, fitted to a four-parameter logistic equation.

GIP receptor = target: T3, GIP receptor (Mus musculus, UniProt Q0P543); assay: Intracellular cAMP in GLUTag incretin-secreting cells; format: cell-based, murine; settings: 0.001-3 μM
T3 construct: endogenous in cells; host or cells: GLUTag cells (murine enteroendocrine line)
T3 sequence (Q0P543 19-460): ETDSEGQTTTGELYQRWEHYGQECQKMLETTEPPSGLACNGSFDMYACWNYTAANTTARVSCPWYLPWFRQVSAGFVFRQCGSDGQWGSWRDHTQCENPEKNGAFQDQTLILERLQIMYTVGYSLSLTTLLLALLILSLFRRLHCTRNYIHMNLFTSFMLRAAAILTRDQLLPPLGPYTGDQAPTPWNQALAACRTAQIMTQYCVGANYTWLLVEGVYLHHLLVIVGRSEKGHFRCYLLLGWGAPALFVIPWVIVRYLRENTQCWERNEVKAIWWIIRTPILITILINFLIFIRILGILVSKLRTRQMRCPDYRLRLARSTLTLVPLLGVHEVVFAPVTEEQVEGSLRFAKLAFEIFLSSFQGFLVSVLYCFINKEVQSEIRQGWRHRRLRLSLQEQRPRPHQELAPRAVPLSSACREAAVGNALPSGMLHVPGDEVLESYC
Method: On the day of the assay, media is decanted from cells and 50 μl EBSS Buffer (0.1% BSA, 2 mM glucose and 0.25 mM IBMX) containing a range of compound concentrations (0.001-3 μM) is added to cells. The plate is incubated at 37° C. for one hour and cAMP levels determined using Cisbio Dynamic 2 cAMP HTRF kit (Bedford, Mass.). 25 μl of anti-cAMP cryptate and 25 μl cAMP d2 is added to each well and plates incubated for one hour at room temperature. […] Data is analyzed with GraphPad using a 4-parameter non-linear logistic algorithm

T1 sequence (P43220 24-463): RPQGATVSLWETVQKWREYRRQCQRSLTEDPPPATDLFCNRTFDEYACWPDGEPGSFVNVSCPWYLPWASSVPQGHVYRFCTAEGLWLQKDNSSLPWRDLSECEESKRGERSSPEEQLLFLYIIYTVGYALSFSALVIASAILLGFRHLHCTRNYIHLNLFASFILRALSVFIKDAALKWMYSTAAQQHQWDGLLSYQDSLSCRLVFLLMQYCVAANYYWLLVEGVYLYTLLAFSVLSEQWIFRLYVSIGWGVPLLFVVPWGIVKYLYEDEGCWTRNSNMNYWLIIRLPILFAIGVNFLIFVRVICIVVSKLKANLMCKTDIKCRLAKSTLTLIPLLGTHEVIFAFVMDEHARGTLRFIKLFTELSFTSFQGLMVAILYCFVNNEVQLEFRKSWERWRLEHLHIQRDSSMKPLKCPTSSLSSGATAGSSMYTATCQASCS
Human GCGR, sequence (P47871 26-477): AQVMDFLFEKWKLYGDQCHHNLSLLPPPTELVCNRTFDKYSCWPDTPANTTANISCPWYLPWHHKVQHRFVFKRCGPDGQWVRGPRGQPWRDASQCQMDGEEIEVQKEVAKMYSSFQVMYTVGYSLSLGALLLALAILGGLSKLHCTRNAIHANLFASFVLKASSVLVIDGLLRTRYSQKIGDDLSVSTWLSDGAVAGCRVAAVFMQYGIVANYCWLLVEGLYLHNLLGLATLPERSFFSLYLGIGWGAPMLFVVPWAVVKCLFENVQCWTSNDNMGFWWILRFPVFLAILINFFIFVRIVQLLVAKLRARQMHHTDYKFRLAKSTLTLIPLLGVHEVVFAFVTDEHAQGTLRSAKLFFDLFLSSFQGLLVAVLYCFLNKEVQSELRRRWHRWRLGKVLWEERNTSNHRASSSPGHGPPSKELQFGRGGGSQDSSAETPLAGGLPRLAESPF

CC[C@H](C)[C@H](NC(=O)[C@H](CC(C)C)NC(=O)[C@H](Cc1c[nH]c2ccccc12)NC(=O)[C@H](CCC(N)=O)NC(=O)[C@@H](NC(=O)[C@H](Cc1cccc2ccccc12)NC(=O)[C@H](C)NC(=O)[C@H](CCCCNC(=O)COCCOCCNC(=O)COCCOCCNC(=O)CC[C@H](NC(=O)CC[C@H](NC(=O)CCCCCCCCCCCCCCCCC(=O)O)C(=O)O)C(=O)O)NC(=O)[C@H](CCC(N)=O)NC(=O)[C@H](C)NC(=O)[C@@H](NC(=O)[C@H](CCCCN)NC(=O)[C@H](CC(=O)O)NC(=O)[C@H](CC(C)C)NC(=O)C(C)(C)NC(=O)[C@@H](NC(=O)[C@H](CO)NC(=O)[C@H](Cc1ccc(O)cc1)NC(=O)[C@H](CC(=O)O)NC(=O)[C@H](CO)NC(=O)[C@@H](NC(=O)[C@H](Cc1ccccc1)NC(=O)[C@@H](NC(=O)CNC(=O)[C@H](CCC(=O)O)NC(=O)C(C)(C)NC(=O)[C@@H](N)Cc1ccc(O)cc1)[C@@H](C)O)[C@@H](C)O)[C@@H](C)CC)[C@@H](C)CC)C(C)C)C(=O)N[C@@H](C)C(=O)NCC(=O)NCC(=O)N1CCC[C@H]1C(=O)N[C@@H](CO)C(=O)N[C@@H](CO)C(=O)NCC(=O)N[C@@H](C)C(=O)N1CCC[C@H]1C(=O)N1CCC[C@H]1C(=O)N1CCC[C@H]1C(=O)N[C@@H](CO)C(N)=O [Example 7] (H-Y[Aib]EGTFTSDYSI[Aib]LDKIAQK([AEEA-AEEA-γGlu-γGlu-C18 diacid])A[1Nal]VQWLIAGGPSSGAPPPS-NH2)
% Change from starting body weight ([1]; Table 10, 10 nmol/kg): −15.08 ± 1.22 %
% Change from starting fat mass ([1]; Table 10, 10 nmol/kg): −26.46 ± 2.31 %
% Change from starting body weight ([1]; Table 10, 30 nmol/kg): −20.70 ± 1.95 %
% Change from starting fat mass ([1]; Table 10, 30 nmol/kg): −43.49 ± 5.47 %
% Change from starting body weight ([1]; Table 10, 100 nmol/kg): −24.36 ± 2.06 %
% Change from starting fat mass ([1]; Table 10, 100 nmol/kg): −49.92 ± 3.40 %
Plasma Cholesterol ([1]; Table 13, 10 nmol/kg): 161.8 ± 6.2 mg/dL
Blood Glucose ([1]; Table 13, 10 nmol/kg): 113.6 ± 4.16 mg/dL
Plasma Cholesterol ([1]; Table 13, 30 nmol/kg): 153.6 ± 13.47 mg/dL
Blood Glucose ([1]; Table 13, 30 nmol/kg): 114.7 ± 4.70 mg/dL
Plasma Cholesterol ([1]; Table 13, 100 nmol/kg): 145.4 ± 9.48 mg/dL
Blood Glucose ([1]; Table 13, 100 nmol/kg): 114 ± 2.36 mg/dL
Molar ratio of hGLP-1R/hGIP-R (human GLP-1R [2]; normalized by factor 4.53 from native GIP and GLP-1 binding): 1.68
Absolute ratio of hGLP-1R/hGIP-R (human GLP-1R [2]; ratio of Ki values): 7.6
EC50 (Human GCGR): > 1000 nM
Emax (human GLP-1R [3]): 97.2 ± 3.4%
CL/F [4]: 1.5 mL/h/kg
Cmax [4]: 2900 ng/mL
AUC(0-inf) ([4]; read-out: Mean AUC0-inf): 136 µg·h/mL
half-life ([4]; read-out: Mean T1/2 (converted)): 31 h
Tmax ([4]; read-out: Mean Tmax): 6 h
EC50 (mouse islets): 11.3 nM
% max increase of insulin AUC [5]: 278 +/− 26% and 335 +/− 35%
Emax (human GIP-R): 106 ± 3%

CC[C@H](C)[C@H](NC(=O)[C@H](Cc1ccccc1)NC(=O)[C@H](CCC(=O)O)NC(=O)[C@H](CCCCN)NC(=O)[C@H](C)NC(=O)[C@H](C)NC(=O)[C@H](CCC(N)=O)NC(=O)CNC(=O)[C@H](CCC(=O)O)NC(=O)[C@H](CC(C)C)NC(=O)[C@H](Cc1ccc(O)cc1)NC(=O)[C@H](CO)NC(=O)[C@H](CO)NC(=O)[C@@H](NC(=O)[C@H](CC(=O)O)NC(=O)[C@H](CO)NC(=O)[C@@H](NC(=O)[C@H](Cc1ccccc1)NC(=O)[C@@H](NC(=O)CNC(=O)[C@H](CCC(=O)O)NC(=O)[C@H](C)NC(=O)[C@@H](N)Cc1c[nH]cn1)[C@@H](C)O)[C@@H](C)O)C(C)C)C(=O)N[C@@H](C)C(=O)N[C@@H](Cc1c[nH]c2ccccc12)C(=O)N[C@@H](CC(C)C)C(=O)N[C@H](C(=O)N[C@@H](CCCCN)C(=O)NCC(=O)N[C@@H](CCCNC(=N)N)C(N)=O)C(C)C [GLP-1,7-36-NH2]
cAMP accumulation in GLUTag cells (GIP receptor): fails to induce any changes in cAMP at all concentrations tested
